Structures are written as SMILES. Values after ≈ are worked out from the molar mass of the structure shown. Read-outs that look alike come from different tables or passages of the source.

Here are results for 1 compound from patent publication US9163020B2, “Azaindole compounds, synthesis thereof, and methods of using the same” (Global Alliance for TB Drug Development, priority 2013, dated 2015).

In data set [1] the test system is hypoxia induced non-replicating persistent (NRP) Mtb cells. Description: Activity against hypoxia induced non-replicating persistent (NRP) Mtb (HBC, Wayne model). The data set is classed as cell-based, Mycobacterium tuberculosis.
The conditions of data set [2]: infected BALB/c mice, acute efficacy, +ABT.
Data set [3] is described as follows: in vivo. The conditions noted are these: Wistar, rat, in vivo. As to the method:
PK of azaindoles compounds was performed in mice (healthy and infected) and rats. Mice were pretreated with 100 mg/kg ABT two hours prior to the compound administration. PK data from healthy mice was used to design the dosing regimen for the efficacy study while, information from infected mice was used for the PK-PD analysis.
All oral administration was performed as suspensions in 0.5% HPMC, and 0.1% Tween 80. […] All blood samples were collected via sapheneous vein into Microvette CB300® (Starstedt, Germany) tubes coated with Lithium-Heparin, and plasma was prepared from the collected blood by centrifugation.
One mg/mL stock solution of each compound was prepared in Dimethylsulfoxide (DMSO) and diluted two-fold with acetonitrile. A sixteen point calibration curve was utilized for each analyte, and the standard curves ranged from 0.001 to 40 μg/mL. Plasma/BAL samples were precipitated by adding chilled acetonitrile (1:10 v/v) containing carbamazepine as internal standard (250 ng/mL). Samples were vortexed, and centrifuged at 4000 rpm for 30 min at 10° C. The resulting supernatant was mixed with mobile phase (50% acetonitrile in water with 0.1% formic acid). […] of sample was injected on to a liquid chromatographic system (Waters-ACQUTY UPLC) coupled to triple quadrupole mass spectrometer (Waters-ACQUTY-TQD; MS/MS). Samples were acquired in positive ion mode and detected by multiple reaction monitoring (MRM). Concentrations of the analyte were determined from a standard curve obtained by plotting known concentrations of the analyte against peak area ratios (analyte/internal standard peak response).
PK analysis of the plasma concentration-time relationships were performed with WinNonlin Phoenix Software (version 6.2; Pharsight, USA). […] The maximum concentration of drug in plasma (Cmax), time to Cmax (Tmax), elimination half-life (t1/2), and AUC from time zero to infinity (AUC0-∞) were estimated. […] Minimum of three sample points in the terminal slope were used to estimate to calculate half-life.

The subject of data set [4] is A549 human lung carcinoma cells. The class given is cell-based. The conditions noted are these: human, 72 h. As to the method:
The in vitro cytotoxicity of compounds were measured against A549 human lung carcinoma cells as describedin Eakin et. al (2012). Briefly, A549 cells (ATCC) were grown in RPMI medium (GIBCO-BRL) containing 10% heat-inactivated fetal bovine serum (GIBCO-BRL) and 1 mM L-glutamine (GIBCO-BRL) at a density of 1,000 cells/well. After incubation of the cells with compound in a CO2 atmosphere at 37° C. for 72 hours, cell viability was determined following addition of […] of resazurin solution (Sigma), by measuring fluorescence (excitation at 535 nm, emission at 590 nm) using a fluorimeter.

Data set [5] deals with CYP1A2, CYP2C9, CYP2C19, CYP2D6, CYP3A4. To be noted: human.
Data set [6] can be described thus: in vivo. The conditions noted are these: BALB/c, mouse, po.
Data set [7] concerns Mycobacterium tuberculosis (Mtb) H37Rv ATCC 27294. In words: microbe, parasite or virus in culture. The class given is cell-based. The conditions noted are these: Mycobacterium tuberculosis, read-out: Mtb MIC.

`COc1ncnc(Cn2cc(C(=O)NCCF)c3ncccc32)c1C` [Compound 3, N-(2-fluoroethyl)-1-((6-methoxy-5-methylpyrimidin-4-yl)methyl)-1H-pyrrolo[3,2-b]pyridine-3-carboxamide]: the “activity against non-replicating Mtb under hypoxic conditions” value in data set [1] (cidality measured as HBC in Wayne model) is reported as “moderate activity”. In data set [1] (hypoxic conditions, Wayne model, Table 4), the “Mtb HBC” value amounted to 50 µM. In addition, in data set [2] (multiple oral doses 50 mg/kg), the “% T > MIC” value was found to be 58% and the “% fT > MIC” value is on record as 23%. Moreover, in data set [2] (multiple oral doses 100 mg/kg), the “% T > MIC” value was 66% and the “% fT > MIC” value is recorded as 41%. In addition, in data set [3] (iv, 0.5 mg/kg), the AUC(0-t) stood at 1.6 ± 0.29 µM·h, the C0h stood at 1.76 ± 0.42 µM, the Vd was 1.05 ± 0.28 L/kg and the clearance is 0.93 ± 0.193 L/h/kg. Also, in data set [3] (iv, 0.5 mg/kg), the half-life is 2.22 ± 2.51 h. Also, in data set [3] (po, 30 mg/kg), the AUC(0-inf) came out at 101 µM·h, the Cmax stood at 15 µM, the F stood at 96% and the Tmax turned out to be 2 h. The half-life in data set [3] (po, 30 mg/kg) is 2.01 h. The “MMIC (A549)” value in data set [4] is above 100 µM. In data set [5], this compound had a CYP inhibition above 50 µM. The compound also registered an AUC in data set [6] of 200 to 700 µM·h. In data set [6] (30 mg/kg), this compound gave a total exposure AUC(0-inf) of 252 ± 64 µM·h, a Cmax of 32.8 ± 14.4 µM and a half-life of 4.46 ± 0.16 h. For the same compound, in data set [7] (Table 1), the MIC worked out at 1.56 µM (≈ 0.536 µg/mL). Moreover, the MIC in data set [7] (Table 4) lay in the range of 1.56 to 3.12 µM (≈ 0.536 to 1.07 µg/mL).

Usually AUC(0-t) stands for exposure summed from dosing to a finite time, without extrapolation to infinity. The low end stands for less exposure, the high end for more exposure. What is called Vd is a proportionality between amount in the body and measured concentration, not a real space. High values mean wide distribution into tissue, low ones little distribution into tissue. As usually defined, the clearance is the rate of elimination divided by the concentration. High values mean a high capacity for elimination, low ones a low capacity for elimination. As a reminder, the half-life is how long it takes for the measured level to halve. Higher therefore signals slow loss. As a reminder, the AUC(0-inf) is the area under the concentration-time curve extrapolated to infinity. What is called Cmax is the maximum level reached in the sampled fluid or tissue. As a reminder, the Tmax is the time at which the peak concentration occurs. In general, AUC refers to concentration integrated over time. Higher therefore signals more exposure.
